Measured values published in patent publication US11285156B2, “Substituted piperazines as KRAS G12C inhibitors” (Amgen Inc., priority 2018, dated 2022).
Read-outs that look alike come from different tables or passages of the source.

Legend:
[1] = tested on: Phosphorylation of ERK1/2 in MIA PaCa-2 cells; assay: Phospho-ERK1/2 MSD assay in MIA PaCa-2 cells; type: cell-based; conditions: read-out: p-ERK IC50 (2 h, MiaPaCa-2; μM)
Procedure, shortened: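 Phospho-ERK1/2 measured by MSD electrochemiluminescence kit in RIPA lysates of MIA PaCa-2 cells. Cells were treated with compound titrations for 2 or 4 h at 37 °C, 5% CO2, followed by a 10 min pulse of 10 ng/mL EGF.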

[2] = biological target: GDP-bound KRAS protein (aa 1-169), containing both G12C and C118A amino acid substitutions (Homo sapiens (Human), UniProt P01116, C118A/G12C); assay: Coupled nucleotide exchange assay (SOS-mediated nucleotide exchange, AlphaScreen); type: biochemical; conditions: 5 min compound pre-incubation; for IC50: read-out: Coupled exchange IC50 (5 min; μM)
[3] = tested on: Phosphorylation of ERK1/2 in A549 cells; assay: Phospho-ERK1/2 MSD assay in A549 cells; type: cell-based; conditions: read-out: p-ERK IC50 (2 h, A549; μM)
Procedure: Phospho-ERK1/2 MSD Assay:
MIA PaCa-2 (ATCC® CRL-1420™) and A549 (ATCC® CCL-185™) cells were cultured in RPMI 1640 Medium (ThermoFisher Scientific 11875093) containing 10% fetal bovine serum (ThermoFisher Scientific 16000044) and 1× penicillin-streptomycin-glutamine (ThermoFisher Scientific 10378016). Sixteen hours prior to compound treatment, MIA PaCa-2 or A549 cells were seeded in 96-well cell culture plates at a density of 25,000 cells/well and incubated at 37° C., 5% CO2. A compound dose-response titration was diluted in growth media, added to appropriate wells of a cell culture plate, and then incubated at 37° C., 5% CO2 for 2 or 4 hours (see Table 15). Following compound treatment, cells were stimulated with 10 ng/mL EGF (Roche 11376454001) for 10 min, washed with ice-cold Dulbecco's phosphate-buffered saline, no Ca2+ or Mg2+ (ThermoFisher Scientific 14190144), and then lysed in RIPA buffer (50 mM Tris-HCl pH 7.5, 1% Igepal, 0.5% sodium deoxycholate, 150 mM NaCl. and 0.5% sodium dodecyl sulfate) containing protease inhibitors (Roche 4693132001) and phosphatase inhibitors (Roche 4906837001). Phosphorylation of ERK1/2 in compound-treated lysates was assayed using Phospho-ERK1/2 Whole Cell Lysate kits (Meso Scale Discovery K151DWD) according to the manufacturer's protocol.

[4] = Homo sapiens, MIA PaCa-2, 2 h, 2 h compound treatment, MIA PaCa-2 cells, EGF stimulated
[5] = Homo sapiens, A549, 2 h, 2 h compound treatment, A549 cells, EGF stimulated
[6] = 2 h compound treatment, MIA PaCa-2 cells, EGF stimulated
[7] = 2 h compound treatment, A549 cells, EGF stimulated

Chain of GDP-bound KRAS protein (aa 1-169), containing both G12C and C118A amino acid substitutions (P01116 other isoform, or with tags, fused parts or gaps G12C/C118A): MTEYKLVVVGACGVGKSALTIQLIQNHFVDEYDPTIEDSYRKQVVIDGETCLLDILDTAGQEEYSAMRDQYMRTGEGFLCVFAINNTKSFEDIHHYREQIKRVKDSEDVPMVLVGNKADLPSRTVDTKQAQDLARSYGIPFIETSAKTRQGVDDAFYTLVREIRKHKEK

Row | Coupled exchange IC50 (5 min; μM) [2] | Compound | IC50 [1, 4] | IC50 [3, 5] | IC50 [1, 6] | IC50 [2] | IC50 [3, 7] | IC50 ([1]; Homo sapiens, MIA PaCa-2, 2 h) | IC50 ([3]; Homo sapiens, A549, 2 h)
1 | 0.382 µM | [2H]C1([2H])CN(c2nc(=O)n(-c3c(C)ccnc3C(C)C)c3nc(-c4c(O)cccc4F)c(F)cc23)CC([2H])([2H])N1C(=O)C=C (atropisomer, axis not shown; (M)) [Example 72-20, (M)-6-Fluoro-7-(2-fluoro-6-hydroxy-phenyl)-1-(2-isopropyl-4-methyl-3-pyridyl)-4-(3,3,5,5-tetradeuterio-4-prop-2-enoyl-piperazin-1-yl)pyrido[2,3-d]pyrimidin-2-one] | 0.223 µM | > 7.5 µM | – | – | – | – | –
2 | 0.468 µM | [2H]C1([2H])CN(C(=O)C=C)CC([2H])([2H])N1c1nc(=O)n(-c2c(C)ccnc2C(C)C)c2nc(-c3c(O)cccc3F)c(F)cc12 (atropisomer, axis not shown; (M)) [Example 72-21, (M)-6-Fluoro-7-(2-fluoro-6-hydroxy-phenyl)-1-(2-isopropyl-4-methyl-3-pyridyl)-4-(2,2,6,6-tetradeuterio-4-prop-2-enoyl-piperazin-1-yl)pyrido[2,3-d]pyrimidin-2-one] | 0.306 µM | > 7.5 µM | – | – | – | – | –
3 | – | C=CC(=O)N1C[C@H](C)N(c2nc(=O)n(-c3c(C)ccnc3C(C)C)c3nc(-c4ccccc4C(C)C)c(Cl)cc23)C[C@H]1C (atropisomer, axis not shown; (M)) [Example 92-1, (M)-6-Chloro-4-[(2S,5R)-2,5-dimethyl-4-prop-2-enoyl-piperazin-1-yl]-1-(2-isopropyl-4-methyl-3-pyridyl)-7-(2-isopropylphenyl)pyrido[2,3-d]pyrimidin-2-one] | – | – | 0.014 µM | 0.016 µM | > 7.5 µM | – | –
4 | – | C=CC(=O)N1CCN(c2nc(=O)n(-c3c(C)ccnc3C(C)C)c3nc(-c4c(N)cccc4F)c(Cl)cc23)C[C@H]1C (atropisomer, axis not shown; (M)) [Example 92-2, (M)-7-(2-Amino-6-fluoro-phenyl)-6-chloro-1-(2-isopropyl-4-methyl-3-pyridyl)-4-[(3R)-3-methyl-4-prop-2-enoyl-piperazin-1-yl]pyrido[2,3-d]pyrimidin-2-one] | – | – | 0.035 µM | 0.024 µM | > 7.5 µM | – | –
5 | – | C=CC(=O)N1C[C@H](C)N(c2nc(=O)n(-c3c(C)ccnc3C(C)C)c3nc(-c4ccsc4C)c(Cl)cc23)C[C@H]1C (atropisomer, axis not shown; (M)) [Example 92-3, (M)-6-Chloro-4-[(2S,5R)-2,5-dimethyl-4-prop-2-enoyl-piperazin-1-yl]-1-(2-isopropyl-4-methyl-3-pyridyl)-7-(2-methyl-3-thienyl)pyrido[2,3-d]pyrimidin-2-one] | 0.094 µM | > 7.5 µM | – | 0.095 µM | – | – | –
6 | – | C=CC(=O)N1C[C@H](C)N(c2nc(=O)n(-c3c(C)ccnc3C(C)C)c3nc(-c4ccccc4C4CC4)c(Cl)cc23)C[C@H]1C (atropisomer, axis not shown; (M)) [Example 92-4, (M)-6-Chloro-7-(2-cyclopropylphenyl)-4-[(2S,5R)-2,5-dimethyl-4-prop-2-enoyl-piperazin-1-yl]-1-(2-isopropyl-4-methyl-3-pyridyl)pyrido [2,3-d]pyrimidin-2-one] | 0.042 µM | > 7.5 µM | – | 0.044 µM | – | – | –
7 | – | C=CC(=O)N1C[C@H](C)N(c2nc(=O)n(-c3c(C)ccnc3C(C)C)c3nc(C4=CCCCCC4)c(Cl)cc23)C[C@H]1C (atropisomer, axis not shown; (M)) [Example 92-10, (M)-6-Chloro-7-(cyclohepten-1-yl)-4-[(2S,5R)-2,5-dimethyl-4-prop-2-enoyl-piperazin-1-yl]-1-(2-isopropyl-4-methyl-3-pyridyl)pyrido [2,3-d]pyrimidin-2-one] | 0.367 µM | > 7.5 µM | – | 0.059 µM | – | – | –
8 | – | C=CC(=O)N1C[C@H](C)N(c2nc(=O)n(-c3c(C)ccnc3C(C)C)c3nc(-c4cccc5cc[nH]c45)c(Cl)cc23)C[C@H]1C (atropisomer, axis not shown; (M)) [Example 92-11, (M)-6-Chloro-4-[(2S,5R)-2,5-dimethyl-4-prop-2-enoyl-piperazin-1-yl]-7-(lH-indol-7-yl)-1-(2-isopropyl-4-methyl-3-pyridyl)pyrido [2,3-d]pyrimidin-2-one] | 0.262 µM | > 7.5 µM | – | 0.086 µM | – | – | –
9 | – | C=CC(=O)N1C[C@H](C)N(c2nc(=O)n(-c3c(C)ccnc3C(C)C)c3nc(-c4ccccc4N)c(Cl)cc23)C[C@H]1C (atropisomer, axis not shown; (M)) [Example 92-12, (M)-7-(2-Aminophenyl)-6-chloro-4-[(2S,5R)-2,5-dimethyl-4-prop-2-enoyl-piperazin-1-yl]-1-(2-isopropyl-4-methyl-3-pyridyl)pyrido[2,3-d]pyrimidin-2-one] | 0.022 µM | > 7.5 µM | – | 0.019 µM | – | – | –
10 | – | C=CC(=O)N1C[C@H](C)N(c2nc(=O)n(-c3c(C)ccnc3C(C)C)c3nc(-c4cccnc4N)c(Cl)cc23)C[C@H]1C (atropisomer, axis not shown; (M)) [Example 92-13, (M)-7-(2-Amino-3-pyridyl)-6-chloro-4-[(2S,5R)-2,5-dimethyl-4-prop-2-enoyl-piperazin-1-yl]-1-(2-isopropyl-4-methyl-3-pyridyl)pyrido [2,3-d]pyrimidin-2-one] | 0.251 µM | > 7.5 µM | – | 0.201 µM | – | – | –
11 | – | C=CC(=O)N1C[C@H](C)N(c2nc(=O)n(-c3c(C)ccnc3C(C)C)c3nc(-c4ccccc4OC(F)F)c(Cl)cc23)C[C@H]1C (atropisomer, axis not shown; (M)) [Example 92-14, (M)-6-Chloro-7-[2-(difluoromethoxy)phenyl]-4-[(2S,5R)-2,5-dimethyl-4-prop-2-enoyl-piperazin-1-yl]-1-(2-isopropyl-4-methyl-3-pyridyl)pyrido [2,3-d]pyrimidin-2-one] | 0.074 µM | > 7.5 µM | – | 0.121 µM | – | – | –
12 | – | C=CC(=O)N1C[C@H](C)N(c2nc(=O)n(-c3c(C)ccnc3C(C)C)c3nc(-c4c(C)ccc5cn[nH]c45)c(Cl)cc23)C[C@H]1C (atropisomer, axis not shown; (M)) [Example 92-15, (M)-6-Chloro-4-[(2S,5R)-2,5-dimethyl-4-prop-2-enoyl-piperazin-1-yl]-1-(2-isopropyl-4-methyl-3-pyridyl)-7-(6-methyl-1H-indazol-7-yl)pyrido[2,3-d]pyrimidin-2-one] | 0.125 µM | > 7.5 µM | – | 0.094 µM | – | – | –
13 | – | C=CC(=O)N1C[C@H](C)N(c2nc(=O)n(-c3c(C)ccnc3C(C)C)c3nc(-c4ccccc4C(F)F)c(Cl)cc23)C[C@H]1C (atropisomer, axis not shown; (M)) [Example 92-16, (M)-6-Chloro-7-[2-(difluoromethyl)phenyl]-4-[(2S,5R)-2,5-dimethyl-4-prop-2-enoyl-piperazin-1-yl]-1-(2-isopropyl-4-methyl-3-pyridyl)pyrido [2,3-d]pyrimidin-2-one] | 0.015 µM | > 7.5 µM | – | 0.043 µM | – | – | –
14 | – | C=CC(=O)N1C[C@H](C)N(c2nc(=O)n(-c3c(C)ccnc3C(C)C)c3nc(-c4cccc(F)c4N)c(Cl)cc23)C[C@H]1C (atropisomer, axis not shown; (M)) [Example 92-17, (M)-7-(2-Amino-3-fluoro-phenyl)-6-chloro-4-[(2S,5R)-2,5-dimethyl-4-prop-2-enoyl-piperazin-1-yl]-1-(2-isopropyl-4-methyl-3-pyridyl)pyrido[2,3-d]pyrimidin-2-one] | 0.018 µM | > 7.5 µM | – | 0.042 µM | – | – | –
15 | – | C=CC(=O)N1C[C@H](C)N(c2nc(=O)n(-c3c(C(C)C)nc(CN(C)C)nc3C(C)C)c3nc(-c4ccccc4F)c(Cl)cc23)C[C@H]1C [Example 160, 4-((2S,5R)-4-Acryloyl-2,5-dimethylpiperazin-1-yl)-6-chloro-1-(2-((dimethylamino)methyl)-4,6-diisopropylpyrimidin-5-yl)-7-(2-fluorophenyl)pyrido[2,3-d]pyrimidin-2(1H)-one] | – | – | – | – | – | 0.058 µM | > 7.5 µM
